Test results taken from US6855730B2, “3-methylidenyl-2-indolinone modulators of protein kinase” (Sugen, Inc., priority 1998, dated 2005).

Columns and labels:
PDGFR-β = target: T1, PDGFR-β (Homo sapiens, UniProt P09619); test: Biochemical PDGFR assay (ELISA, PDGFR-β expressing NIH 3T3 cell lysate); conditions: read-out: bio PDGF IC50
T1 construct: host or cells: NIH 3T3
Text: This assay measures the in vitro kinase activity of PDGFR using ELISA.
Unless otherwise noted, the preparation of working solution-of the following reagents is the same as that for the Biochemical EGFR assay, above. • 1. […] 28D4C10 monoclonal anti-PDGFR antibody (Biochemistry Lab, SUGEN, Inc.). • 3. PBS (Dulbecco's Phosphate-Buffered Saline, Gibco Catalog No. 450-1300EB) • 4. TBST Buffer. • 5. Blocking Buffer. • 6. PDGFR-β expressing NIH 3T3 cell lysate (Screening Lab, SUGEN, Inc.). • 7. TBS Buffer. • 8. TBS+10% DMSO. • 9. […] MnCl2. • 11. Kinase buffer phosphorylation mix.
• 12. NUNC 96-well V bottom polypropylene plates (Applied Scientific Cat. No. AS-72092). • 13. Ethylenediaminetetraacetic acid (EDTA). • 14. Rabbit polyclonal anti-phosphotyrosine serum (Biochemistry Lab, SUGEN, Inc.). • 15. Goat anti-rabbit IgG peroxidase conjugate (Biosource Cat. No. ALI0404). • 16. 2,2′-azino-bis(3-ethylbenzthiazoline-6-sulfonic acid) (ABTS, Sigma Cat. No. A-1888). • 17. Hydrogen peroxide 30% solution (Fisher Cat. No. H325). • 18. ABTS/H2O2. • 19. 0.2 M HCl.
Procedure • 1. Coat Corning 96 well ELISA plates with 0.5 μg 28D4C10 in 100 μl PBS per well, store overnight at 4° C. • 2. Remove unbound 28D4C10 from wells by inverting plate to remove liquid. Wash 1× with dH2O. Pat the plate on a paper towel to remove excess liquid. • 3. Add 150 μl of Blocking Buffer to each well. Incubate for 30 min. at room temperature with shaking. • 4. Wash plate 3× with deionized water, then once with TBST. Pat plate on a paper towel to remove excess liquid and bubbles. • 5. Dilute lysate in HNTG (10 μg lysate/100 μl HNTG) • 6. Add 100 μl of diluted lysate to each well. Shake at room temperature for 60 min. • 7. Wash plates as described in 4, above. • 8. Add 80 μl working kinase buffer mix to ELISA plate containing captured PDGFR. • 9. Dilute test compound 1:10 in TBS in 96-well polypropylene plates (i.e., 10 μl compound+90 μl TBS). • 10. Add 10 μl diluted test compound to ELISA plate. […] Incubate for 30 minutes while shaking at room temperature. • 12. Add 10 μl ATP directly to all wells except negative control well (final well volume should be approximately 100 μl with 20 μM ATP in each well.) Incubate 30 minutes while shaking. • 13. After 30 minutes, stop reaction by adding 10 μl of 200 mM EDTA (pH 8.0) to each well. • 14. Wash 4× with deionized water, twice with TBST. • 15. Add 100 μl anti-phosphotyrosine (1:3000 dilution in TBST) per well. Incubate 30-45 min. at room temperature, with shaking. • 16. Wash as described in 4, above. • 17. Add 100 μl Biosource Goat anti-rabbit IgG peroxidase conjugate (1:2000 dilution in TBST) to each well. Incubate 30 min. at room temperature, with shaking. • 18. Wash as described in 4, above. • 19. Add 100 μl of ABTS/H2O2 solution to each well. • 20. Incubate 10 to 30 minutes with shaking. Remove any bubbles. • 21. If necessary stop reaction with the addition of 100 μl 0.2 M HCl per well. • 22. Read assay on Dynatech MR7000 ELISA reader: test filter: 410 nM, reference filter: 630 nM.

EGFR = EGFR (Homo sapiens, UniProt P00533); test: Biochemical EGFR assay (ELISA, A431 cell lysate); set-up: A431 cell lysate (Screening Lab, SUGEN, Inc.); host or cells: A431; conditions: read-out: bio EGFr IC50
Experimental: This assay measures the in vitro kinase activity of EGFR using ELISA.
Materials and Reagents • 1. […] SUMO1 monoclonal anti-EGFR antibody (Biochemistry Lab, SUGEN, Inc.). • 3. PBS (Dulbecco's Phosphate-Buffered Saline, Gibco Catalog No. 450-1300EB). • 4. TBST Buffer
• 6. A431 cell lysate (Screening Lab, SUGEN, Inc.) • 7. TBS Buffer:
Prepare a 1.0 mM solution in dH2O. This reagent should be made up immediately prior to use and kept on ice. • 10. MnCl2.
Prepare a 1.0 M stock solution in dH2O. • 11. ATP/MnCl2 phosphorylation mix
This reagent should be prepared immediately before use and kept on ice. • 12. NUNC 96-well V bottom polypropylene plates (Applied Scientific Cat. No. AS-72092). • 13. Ethylenediaminetetraacetic acid (EDTA)
Prepare 200 mM working solution in dH2O. Adjust to pH 8.0 with 10 N NaOH. • 14. Rabbit polyclonal anti-phosphotyrosine serum (Biochemistry Lab, SUGEN, Inc.) • 15. Goat anti-rabbit IgG peroxidase conjugate (Biosource Cat. No. ALI0404) • 16. ABTS (2,2′-azino-bis(3-ethylbenzthiazoline-6-sulfonic acid), Sigma Cat. No. A-1888).
Mix first two ingredients in about 900 ml dH2O, adjust pH to 4.0 with phosphoric acid. Add ABTS, cover, let sit about 0.5 hr., filter. The solution should be kept in the dark at 4° C. until ready to use. • 17. Hydrogen peroxide 30% solution (Fisher Cat. No. H325) • 18. ABTS/H2O2 • Mix 15 ml ABTS solution and 2.0 μl H2O2. Prepare 5 minutes before use. • 19. 0.2 M HCl
Procedure • 1. Coat Corning 96 well ELISA plates with 0.5 μg SUMO1 in 100 μl PBS per well, store overnight at 4° C. • 2. Remove unbound SUMO1 from wells by inverting plate to remove liquid., Wash 1× with dH2O. Pat the plate on a paper towel to remove excess liquid. • 3. Add 150 μl of Blocking Buffer to each well. Incubate for 30 min. at room temperature with shaking. • 4. Wash plate 3× with deionized water, then once with TBST. Pat plate on a paper towel to remove excess liquid and bubbles. • 5. Dilute lysate in PBS (7 μg lysate/100 μl PBS). • 6. Add 100 μl of diluted lysate to each well. Shake at room temperature for 60 min. • 7. Wash plates as described in 4, above. • 8. Add 120 μl TBS to ELISA plate containing captured EGFR. • 9. Dilute test compound 1:10 in TBS in 96-well polypropylene plates (i.e. 10 μl compound+90 μl TBS). • 10. Add 13.5 μl diluted test compound to ELISA plate. […] Incubate for 30 minutes while shaking at room temperature. • 12. […] After 5 minutes, stop reaction by adding 16.5 μl of 200 mM EDTA (pH 8.0) to each well, shaking continuously. After the EDTA has been added, shake for 1 min. • 14. Wash 4× with deionized water, twice with TBST. • 15. Add 100 μl anti-phosphotyrosine (1:3000 dilution in TBST) per well. Incubate 30-45 min. at room temperature, with shaking. • 16. Wash as described in 4, above. • 17. Add 100 μl Biosource Goat anti-rabbit IgG peroxidase conjugate (1:2000 dilution in TBST) to each well. Incubate 30 min. at room temperature, with shaking. • 18. Wash as described in 4, above. • 19. Add 100 μl of ABTS/H2O2 solution to each well. • 20. Incubate 5 to 10 minutes with shaking. Remove any bubbles. • 21. If necessary stop reaction with the addition of 100 μl 1 0.2 M HCl per well. • 22. Read assay on Dynatech MR7000 ELISA reader. Test Filter: 410 nM Reference Filter: 630 Nm.

T1 sequence (P09619 33-1106): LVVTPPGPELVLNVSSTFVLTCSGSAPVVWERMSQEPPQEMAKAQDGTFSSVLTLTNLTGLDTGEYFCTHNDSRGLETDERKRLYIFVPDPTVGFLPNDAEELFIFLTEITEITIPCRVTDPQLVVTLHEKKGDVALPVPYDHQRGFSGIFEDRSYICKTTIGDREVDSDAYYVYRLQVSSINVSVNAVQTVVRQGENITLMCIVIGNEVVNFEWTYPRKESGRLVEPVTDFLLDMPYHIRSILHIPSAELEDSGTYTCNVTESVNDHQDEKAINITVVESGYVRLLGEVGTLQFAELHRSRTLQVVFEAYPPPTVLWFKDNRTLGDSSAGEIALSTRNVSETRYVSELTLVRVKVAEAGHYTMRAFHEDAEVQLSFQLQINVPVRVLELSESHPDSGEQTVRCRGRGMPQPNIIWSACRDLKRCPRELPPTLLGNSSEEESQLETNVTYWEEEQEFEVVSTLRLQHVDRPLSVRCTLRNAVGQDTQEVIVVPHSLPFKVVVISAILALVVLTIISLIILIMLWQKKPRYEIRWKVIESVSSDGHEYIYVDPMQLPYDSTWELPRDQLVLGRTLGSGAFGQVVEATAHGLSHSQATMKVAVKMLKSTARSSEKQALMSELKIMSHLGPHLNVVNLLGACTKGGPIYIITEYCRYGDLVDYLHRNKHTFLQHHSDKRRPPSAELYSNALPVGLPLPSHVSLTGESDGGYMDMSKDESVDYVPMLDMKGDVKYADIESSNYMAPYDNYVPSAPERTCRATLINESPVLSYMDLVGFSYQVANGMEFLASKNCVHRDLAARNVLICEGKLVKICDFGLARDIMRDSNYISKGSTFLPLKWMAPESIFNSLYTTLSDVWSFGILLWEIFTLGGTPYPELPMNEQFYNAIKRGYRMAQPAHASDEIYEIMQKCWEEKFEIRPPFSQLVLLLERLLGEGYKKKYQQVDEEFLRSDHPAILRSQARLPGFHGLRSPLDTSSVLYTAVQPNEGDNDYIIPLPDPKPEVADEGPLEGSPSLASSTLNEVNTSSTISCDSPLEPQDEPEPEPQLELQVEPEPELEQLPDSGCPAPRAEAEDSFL
Sequence of EGFR (P00533 25-1210): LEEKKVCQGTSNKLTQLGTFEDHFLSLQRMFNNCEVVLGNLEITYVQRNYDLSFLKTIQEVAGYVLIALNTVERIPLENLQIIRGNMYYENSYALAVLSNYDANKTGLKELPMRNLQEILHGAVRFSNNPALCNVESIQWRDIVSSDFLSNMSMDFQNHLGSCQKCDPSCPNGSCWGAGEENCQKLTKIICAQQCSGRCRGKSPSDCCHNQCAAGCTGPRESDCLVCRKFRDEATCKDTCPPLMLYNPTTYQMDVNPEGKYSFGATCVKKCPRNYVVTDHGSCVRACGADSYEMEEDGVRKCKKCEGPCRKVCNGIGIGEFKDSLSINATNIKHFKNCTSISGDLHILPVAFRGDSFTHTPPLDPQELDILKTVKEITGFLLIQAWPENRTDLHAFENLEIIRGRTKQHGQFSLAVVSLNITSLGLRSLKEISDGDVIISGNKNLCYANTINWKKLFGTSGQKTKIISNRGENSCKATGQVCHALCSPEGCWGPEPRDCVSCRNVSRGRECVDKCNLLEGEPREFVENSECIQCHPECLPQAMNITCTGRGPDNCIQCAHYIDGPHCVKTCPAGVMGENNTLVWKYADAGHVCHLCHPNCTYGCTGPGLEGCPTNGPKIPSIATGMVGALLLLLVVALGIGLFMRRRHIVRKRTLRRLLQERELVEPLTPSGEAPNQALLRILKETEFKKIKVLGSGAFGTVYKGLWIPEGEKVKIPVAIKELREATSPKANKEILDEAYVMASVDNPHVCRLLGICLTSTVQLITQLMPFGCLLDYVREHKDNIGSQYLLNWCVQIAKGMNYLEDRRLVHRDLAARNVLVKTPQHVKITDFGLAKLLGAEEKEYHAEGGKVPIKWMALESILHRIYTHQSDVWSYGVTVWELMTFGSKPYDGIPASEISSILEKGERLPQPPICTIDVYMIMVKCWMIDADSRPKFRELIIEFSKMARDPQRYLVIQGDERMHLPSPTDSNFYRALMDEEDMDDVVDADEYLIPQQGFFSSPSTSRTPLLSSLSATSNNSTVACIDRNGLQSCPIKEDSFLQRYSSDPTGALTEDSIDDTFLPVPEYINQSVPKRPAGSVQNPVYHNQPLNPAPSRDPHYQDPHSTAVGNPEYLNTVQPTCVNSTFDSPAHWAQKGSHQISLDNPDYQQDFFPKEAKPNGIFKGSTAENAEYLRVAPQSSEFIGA

IC50 (PDGFR-β) | IC50 (EGFR) | SMILES
31.7 µM |  | CCOC(=O)c1c(C)[nH]c(/C=C2\C(=O)Nc3ccc(C(=O)O)cc32)c1CCCN1CCN(C)CC1 [Compound 129, 3-{4-Ethoxycarbonyl-5-methyl-3-(3-(4-methyl-piperazin-1-yl)-propyl]-1H-pyrrol-2-ylmethylene)-2-oxo-2,3-dihydro-1H-indole-5-carboxylic acid]
5.73 µM |  | CCOC(=O)c1c(C)[nH]c(/C=C2\C(=O)Nc3ccc(C(=O)O)cc32)c1CCCN1CCOCC1 [Example 125, 3-[4-Ethoxycarbonyl-5-methyl-3-(3-morpholin-4-ylpropyl)-1H-pyrrol-2-ylmethylene]-2-oxo-2,3-dihydro-1H-indole-5-carboxylic acid]
0.96 µM |  | CCOC(=O)c1c(C)[nH]c(/C=C2\C(=O)Nc3ccc(OC)cc32)c1CCCN1CCCC1 [Example 127, 5-(5-Methoxy-2-oxo-1,2-dihydroindol-3-ylidenemethyl)-2-methyl-4-(3-pyrrolidin-1-ylpropyl)-1H-pyrrole-3-carboxylic acid ethyl ester]
17.1 µM |  | CCOC(=O)c1c(C)[nH]c(/C=C2\C(=O)Nc3ccc(C(=O)O)cc32)c1CCCN1CCCC1 [Example 128, 3-[4-Ethoxycarbonyl-5-methyl-3-(3-pyrrolidin-1-ylpropyl)-1H-pyrrol-2-ylmethylene]-2oxo-2,3-dihydro-1H-indole-5-carboxylic acid]
4.88 µM |  | CCOC(=O)c1c(C)[nH]c(/C=C2\C(=O)Nc3ccc(C(=O)O)cc32)c1CCCN(C)C [Example 134, 3-[3-(3-Dimethylaminopropyl)-4-ethoxycarbonyl-5-methyl-1H-pyrrol-2-ylmethylene]-2-oxo-2,3-dihydro-1H-indole-5-carboxylic acid]
0.5 µM | 0.19 µM | CCOC(=O)c1c(C)[nH]c(/C=C2\C(=O)Nc3cccc(CCO)c32)c1CCCN(C)C [Example 135, 4-(3-Dimethylaminopropyl)-5-[4-(2-hydroxyethyl)-2-oxo-1,2-dihydroindol-3-ylidenemethyl]-2-methyl-1H-pyrrole-3-carboxylic acid ethyl ester]
84.6 µM | > 100 µM | O=C(O)CCc1c(C=C2C(=O)Nc3cc(N4CCOCC4)ccc32)[nH]c2c1CCCC2 [Example 209, 3-[2-(6-Morpholin-4-yl-2-oxo-1,2-dihydroindol-3-ylidenemethyl)-4,5,6,7-tetrahydro-1H-indol-3-yl]-propionic acid]
